The values that follow come from ChEMBL document CHEMBL1158999, “Biologically active gamma-lactones and methylketoalkenes from Lindera benzoin” (J Nat Prod, 1992).

As usually defined, the LC50 is the concentration lethal to half of the exposed cells or organisms.

One series concerns HT-29. The series is described as follows: Cytotoxicity against human HT-29 cells. It is filed as functional. As to conditions: read-out: ED50 (the source's name).
Another series has as its system Artemia salina. The series is described as follows: Toxicity in Artemia salina. The class given is organism-based. As to conditions: in vivo.
Another series concerns A549. The series is described as follows: Cytotoxicity against human A549 cells. It is filed as functional. As to conditions: read-out: ED50 (the source's name).
The test system of a further series is MCF7. Briefly: Cytotoxicity against human MCF7 cells. It is filed as functional. As to conditions: read-out: ED50 (the source's name).
The subject of series [1] is Diabrotica undecimpunctata. Briefly: Insecticidal activity against Diabrotica undecimpunctata assessed as mortality at 12 ppm. It is filed as functional.
In the next series the test system is Aphis gossypii. The series is described as follows: Insecticidal activity against Aphis gossypii assessed as mortality at 12 ppm. It is filed as functional.
In series [2] the test system is Agrobacterium tumefaciens. The series is described as follows: Antitumor activity against Agrobacterium tumefaciens-induced crown gall tumor in potato tubers at by potato disk assay. The class given is functional.
The test system of a further series is Tetranychus urticae. Briefly: Insecticidal activity against Tetranychus urticae assessed as mortality at 12 ppm. It is filed as functional.
The subject of another series is Spodoptera eridania. The series is described as follows: Insecticidal activity against Spodoptera eridania assessed as mortality at 12 ppm. It is filed as functional.

Values after ≈ are worked out from the molar mass of the structure shown.

As for `CCCCC/C=C\C/C=C\CCCC(C)=O`, the EC50 in the series with HT-29, in the series on A549 and in the series on MCF7 was greater than 10 µg/mL throughout. For the same molecule, the LC50 in the series with Artemia salina came out at 2.9 ppm.
As for `CC/C=C\C/C=C\C/C=C\CCCC(C)=O`, the EC50 in the series with HT-29 is 3.01 µg/mL (≈ 13.7 µM); in the series on A549 it was greater than 10 µg/mL; in the series with MCF7, 5.15 µg/mL (≈ 23.4 µM). In addition, the LC50 in the series on Artemia salina is listed as 3 ppm.
`C=C[C@](C)(O)CC/C=C(/C)CCC=C(C)C`: the EC50 in the series on HT-29, in the series on A549 and with MCF7 was greater than 10 µg/mL each time. The molecule further yielded an LC50 in the series on Artemia salina of 5.75 ppm.
As to `COc1cccc2c1C(=O)c1c(O)c3c(c(O)c1C2=O)C[C@@](O)(C(=O)CO)C[C@@H]3O[C@H]1C[C@H](N)[C@H](O)[C@H](C)O1` [DOXORUBICIN], the EC50 in the series with HT-29 was 0.012 µg/mL (≈ 0.0221 µM); in the series with A549, 0.0018 µg/mL (≈ 0.00331 µM); in the series with MCF7, 0.051 µg/mL (≈ 0.0938 µM). Also, the 50% lethal concentration (LC50) with Artemia salina is listed as 0.088 ppm.
Regarding `C=C1OC(=O)/C(=C/CCCCCCCCCCCCCCC)[C@@H]1O` [ISOLINDERANOLIDE], the EC50 with HT-29 is 3.07 µg/mL (≈ 9.12 µM); in the series on A549 it was 4.57 µg/mL (≈ 13.6 µM); in the series with MCF7, 3.12 µg/mL (≈ 9.27 µM). In addition, the Activity in series [1] worked out at 20%; in the series on Aphis gossypii it was 0%; with Tetranychus urticae, 0%; in the series on Spodoptera eridania, 0%. The molecule further had an LC50 in the series on Artemia salina of 0.96 ppm. The “inhibition (INH)” value in series [2] was found to be 44.9%.
On to `C=C1OC(=O)/C(=C/CCCC/C=C\CCCCCCCCC)[C@@H]1O` [ISOLINDERENOLIDE], for which the EC50 was 1.9 µg/mL (≈ 5.68 µM) in the series on HT-29, 3.01 µg/mL (≈ 9 µM) with A549 and 2.58 µg/mL (≈ 7.71 µM) in the series on MCF7. The Activity (in series [1]; in the series with Aphis gossypii; in the series on Tetranychus urticae; in the series with Spodoptera eridania) was 0% in each case. This molecule came in with an LC50 in the series on Artemia salina of 0.52 ppm. For the same molecule, the “inhibition (INH)” value in series [2] was found to be 41.4%.
On to `C=C1OC(=O)/C(=C/CCCCCCCCCCCCC)[C@@H]1O` [ISOOBTUSILACTONE A], for which the EC50 was determined as 2.48 µg/mL (≈ 8.04 µM) with HT-29, 3.75 µg/mL (≈ 12.2 µM) with A549 and 2.31 µg/mL (≈ 7.49 µM) in the series with MCF7. The Activity (in series [1]; with Aphis gossypii; in the series with Tetranychus urticae; with Spodoptera eridania) was 0% in each case. The molecule also came in with an LC50 in the series on Artemia salina of 0.72 ppm.
For `C=CCCCCCCCCC/C=C1/C(=O)OC(=C)[C@H]1O` [ISOOBUTASILACTONE], the EC50 in the series with HT-29 was 2.92 µg/mL (≈ 10.5 µM); in the series with A549, greater than 10 µg/mL; with MCF7, 4.6 µg/mL (≈ 16.5 µM). The Activity (in [1]; in the series with Aphis gossypii; with Tetranychus urticae; in the series with Spodoptera eridania) was 0% in each case. In the series with Artemia salina, this molecule had a median lethal concentration (LC50) of 0.065 ppm.
Turning to `C=C1OC(=O)/C(=C\CCCCCCCCCCCCCCC)[C@@H]1O` [LINDERANOLIDE], the EC50 stood at 30.5 µg/mL (≈ 90.6 µM) in the series with HT-29, 0.928 µg/mL (≈ 2.76 µM) in the series on A549 and 73.6 µg/mL (≈ 219 µM) with MCF7. The LC50 with Artemia salina turned out to be 5.23 ppm.
As for `C=C1OC(=O)/C(=C\CCCCCCCCCCCCC)[C@@H]1O` [OBTUSILACTONE A], the values for the EC50 in the series on HT-29, in the series with A549 and in the series on MCF7 were 2.93 µg/mL (≈ 9.5 µM), greater than 10 µg/mL and 5.12 µg/mL (≈ 16.6 µM), respectively. For the same molecule, the Activity (in series [1]; in the series with Aphis gossypii; in the series on Tetranychus urticae; with Spodoptera eridania) was 0% each time. In addition, the LC50 in the series with Artemia salina amounted to 0.89 ppm.
In the case of `C=CCCCCCCCCC/C=C1\C(=O)OC(=C)[C@H]1O` [OBTUSILACTONE], the EC50 in the series with HT-29 was determined as 3.26 µg/mL (≈ 11.7 µM); in the series with A549, 3.32 µg/mL (≈ 11.9 µM); in the series on MCF7 it was 4.58 µg/mL (≈ 16.5 µM). Also, the Activity (in [1]; in the series with Aphis gossypii; in the series with Tetranychus urticae; in the series with Spodoptera eridania) was 0% each time. Moreover, the LC50 in the series on Artemia salina is 0.035 ppm. Also, in series [2], the “inhibition (INH)” value is 64.2%.
